Values joined by “and” are separate entries in the source; they are usually repeats but may differ in a detail not shown here. Equal entries are not always repeated.
How the values were obtained:
[1] = target: T1, trypsin (Sus scrofa, UniProt P00761); assay: Irreversible inhibition kinetics of trypsin (fluorogenic substrate progress curves); assay type: biochemical, porcine
T1 construct: purchased Sigma-Aldrich; host or cells: porcine pancreas
Protocol: (§1) A range of inhibitor concentrations were prepared from a 10 mM stock solution of the test compounds (NAP533, NAP559, NAP800, NAP830, NAP849, and NAP962) in N, N-dimethylformamide (DMF). Recombinant protease activities were assayed using the cognate fluorogenic substrates as follows: trypsin (Z-Gly-Gly-Arg-NHMec), thrombin (Boc-Val-Pro-Arg-NHMec), plasmin (Boc-Val-Leu-Lys-NHMec), human neutrophil elastase (MeO-Succinyl-Ala-Ala-Pro-Val-NHMec), and chymotrypsin (Succinyl-Ala-Ala-Pro-Phe-NHMec). Each substrate was used at a final concentration of 50 μM, in the appropriate buffer for each protease. All inhibition assays were performed in microtiter plates maintained at 37°C in a final volume of 100 μL. The reaction was initiated by the addition of each protease (approx. 0.01 μg/well) and the rate of substrate hydrolysis was recorded continuously at 37°C, over a 60 min period, by measuring the rate of increase in fluorescence (at λex 360 nm, λem 480 nm) using a FLUOstar Optima microplate reader (BMG Labtech).
(§2) The resultant inhibition progress curves obtained for each inhibitor were analyzed by the kinetic models developed by [Tian and Tsou (1982)] and [Walker and Elmore (1984)], for irreversible inhibitors, with curve fitting being achieved using GraFit (Erithacus Software), as described previously ([Ferguson et al., 2016]).
FIGURE 4 Progress curves for (A), chymotrypsin-catalysed hydrolysis of Succinyl-Ala-Ala-Pro-Phe-NHMec, in the presence of varying concentrations of NAP849. (B), NE-catalysed hydrolysis of MeO-succinyl-Ala-Ala-Pro-Val-NHMec, in the presence of varying concentrations of NAP800. (C) Trypsin-catalysed of Z-Gly-Gly-Arg-NHMec, in the presence of NAP830. (D) Plasmin-catalysed hydrolysis of Boc-Val-Leu-Lys-NHMec, in the presence of varying concentrations of NAP962. Assays were carried out in PBS, pH 7.4, at 37°C, in the presence of a range of inhibitor concentrations (0.25–50 μM) and a fixed concentration (50 μM) of the appropriate substrate for each protease. […]
(§3) Protease inactivation by each of the compounds under study was evaluated using a fluorogenic enzyme assays. […]

[2] = target: T2, chymotrypsin (Bos taurus, UniProt P00766); assay: Irreversible inhibition kinetics of chymotrypsin (fluorogenic substrate progress curves); assay type: biochemical, bovine
T2 construct: purchased Sigma-Aldrich (supplement); Calbiochem; host or cells: bovine pancreas
Protocol: as §1, §2
FIGURE 4 Progress curves for (A), chymotrypsin-catalysed hydrolysis of Succinyl-Ala-Ala-Pro-Phe-NHMec, in the presence of varying concentrations of NAP849. (B), NE-catalysed hydrolysis of MeO-succinyl-Ala-Ala-Pro-Val-NHMec, in the presence of varying concentrations of NAP800. (C) Trypsin-catalysed of Z-Gly-Gly-Arg-NHMec, in the presence of NAP830. (D) Plasmin-catalysed hydrolysis of Boc-Val-Leu-Lys-NHMec, in the presence of varying concentrations of NAP962. Assays were carried out in PBS, pH 7.4, at 37°C, in the presence of a range of inhibitor concentrations (0.25–50 μM) and a fixed concentration (50 μM) of the appropriate substrate for each protease.
The “product progress” curves for substrate hydrolysis in the presence of an inhibitor (Figure 4) are indicative of the action of irreversible inhibitors operating through the kinetic scheme illustrated in Figure 6. In this scheme, the formation of the reversible enzyme–inhibitor complex (EI) is zcharacterized by the inhibitor constant K i. This is converted into the covalent/irreversible complex (E-I) characterized by a first-order rate constant k 3. The overall second-order rate constant for the inactivation of E by I is given by the ratio k 3/K i ([Walker and Elmore, 1984]; [Tsou, 1988]). […]
as §3

[3] = target: T3, thrombin (Homo sapiens, UniProt P00734); assay: Irreversible inhibition kinetics of thrombin (fluorogenic substrate progress curves); assay type: biochemical; details: PBS pH 7.4, 37°C, mean ± SD (n=2)
T3 construct: apparent molecular mass of 31 kDa, corresponding to the heavy (catalytic) chain of the protease; purchased R&D Systems
Protocol: as §1, §2
Protease inactivation by each of the compounds under study was evaluated using a fluorogenic enzyme assays. Protease-substrate combinations used as detailed in Section 2. Inhibitors were made up as 10 mM stock solutions in either DMF or DMSO, then diluted with PBS (pH 7.4) to give appropriate working concentrations. A final volume of 100 μL was used per well. […] Increase in fluorescence was recorded using a FLUOstar OPTIMA spectrofluorometer (BMG Labtech), excitation 380 nm and emission 460 nm, for 61 cycles (60 seconds/cycle), with results analysed using MARS Data Analysis Software (BMG Labtech). […]

T1 sequence (P00761 9-231): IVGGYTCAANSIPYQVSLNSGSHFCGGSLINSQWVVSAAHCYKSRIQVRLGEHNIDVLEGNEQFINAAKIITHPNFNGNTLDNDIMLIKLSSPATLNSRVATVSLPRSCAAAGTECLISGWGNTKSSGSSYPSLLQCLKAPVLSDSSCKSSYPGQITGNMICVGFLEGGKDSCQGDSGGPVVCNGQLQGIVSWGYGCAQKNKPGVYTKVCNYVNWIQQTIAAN

For `NCCCCN(CC(=O)NCC(=O)NCC(=O)NCCCOCCOCCOCCCNC(=O)CCCCC1SCC2NC(=O)NC21)C(=O)ON1C(=O)CCC1=O` (stereo not drawn) [NAP830, Succinimidoyl-CO-NLys-Gly-Gly-PEG-Biotin], the “k 3” value ([1]; first-order rate constant, PBS pH 7.4, 37°C, mean ± SD (n=2)) was 0.6 (+ 0.2) min^−1, the “effectiveness as irreversible inhibitor relative to the analogous lysine diphenyl phosphonate QUBTL2” value ([1]; fold greater than QUBTL2) was “two-fold” and the “k 3 / K i” value ([1]; second-order rate constant of inactivation, PBS pH 7.4, 37°C, mean ± SD (n=2)) was 45700 M⁻¹ s⁻¹.
With `O=C(CCCCC1SCC2NC(=O)NC21)NCCCOCCOCCOCCCNC(=O)CNC(=O)CNC(=O)CN(Cc1ccccc1)C(=O)ON1C(=O)CCC1=O` (stereo not drawn) [NAP849, Succinimidoyl-CO-NPhe-Gly-Gly-PEG-Biotin] the Ki ([2]; Succinyl-Ala-Ala-Pro-Phe-NHMec 50 μM, PBS pH 7.4, 37°C, mean ± SD (n=3)) was 0.89 µM, the “k 3” value ([2]; first-order rate constant, PBS pH 7.4, 37°C, mean ± SD (n=3)) was 0.85 (± 0.29) min^−1 and the “second-order rate constant relative to the analogous phenylalanine diphenyl phosphonate QUBCL1” value ([2]; fold greater than QUBCL1) was “approximately ten-fold”. For the same molecule, the “k 3 / K i” value ([2]; second-order rate constant of inactivation, PBS pH 7.4, 37°C, mean ± SD (n=3)) was 1.28 × 10^6 M^−1 min^−1 and 1.28 (± 0.44) × 10^6 M^−1 min^−1.
`N=C(N)NCCCN(CC(=O)N1CCC[C@H]1C(=O)N(CC(N)=O)Cc1ccccc1)C(=O)ON1C(=O)CCC1=O` [NAP559, Succinimidoyl-CO-NArg-D-Pro-NPhe-NH2] was tested, and the KI (inactivation) ([3]; Boc-Val-Pro-Arg-NHMec 50µM) was 5.67 µM, the k 3 ([3]; first-order rate constant) was 0.6 (± 0.068) min^-1 and the “k 3 / K i” value ([3]; second-order rate constant) was 1.1 (± 0.3) x 10^5 M^-1 min^-1.
